The data set is described as follows: Human HepG2 cell viability assay in 384 well format. Format: toxicity, cell-based. Conditions: HepG2 cells, read-out: Inhibition. The arrangement: dose 125 nL, time 70.5 hour; cytotoxicity at 70.5 h: concentration not given beside the values.

Regarding `O=C(c1ccccn1)N1C[C@@H](OCc2cccnc2)[C@H]2OCCC[C@@H]21`, the cytotoxicity at 70.5 h is 9.73%.
The same measure for `Cc1nnn2c1COCC(CNC(=O)c1ccc[nH]1)C2` (configuration not stated): 7.03%.
The same measure for `Cc1nc(CN2CCO[C@@H]3CN(C(=O)CC4CC4)CC[C@@H]3C2)cs1`: -13.3%.
As to `CC(C)NC(=O)N1CCC2(CC(=O)N(c3ccccc3)C2)C1` (configuration not stated), the cytotoxicity at 70.5 h came out at 17.9%.
In the case of `Cc1nc([C@@H]2C[C@@H]3CCN(C(=O)c4ccsc4)C[C@H]3O2)no1`, the cytotoxicity at 70.5 h was -4.84%.
In the case of `O=C(NCC1CC1)C1=NOC2(CCN(S(=O)(=O)c3ccc(F)cc3)C2)C1` (configuration not stated) it was -0.024%; in that of `Cc1nc([C@@H]2C[C@@H]3CCN(C(=O)Cc4cccs4)C[C@H]3O2)no1`, -11.4%; in that of `CC(C)CNC(=O)[C@H]1C[C@@H]2CN(C(=O)NCCc3ccccc3)C[C@H]1O2`, -10.9%.
The same measure for `CC(C)NC(=O)[C@H]1C[C@@H]2CN(C(=O)NCCc3ccccc3)C[C@H]1O2`: 8.95%; for `COc1cccc(N2CC3(CCN(C(=O)NC(C)C)C3)CC2=O)c1` (configuration not stated): -7.02%.
In the case of `CCS(=O)(=O)N1CCc2c(cnc(-c3cccnc3)c2C(=O)O)C1` it was 10.1%; in that of `O=C(NCC1CC1)[C@H]1C[C@@H]2CN(C(=O)NCc3ccccc3)C[C@H]1O2`, 11.4%; in that of `CCOCC1CN(C(=O)Cc2ccccn2)Cc2cn(CC)nc21` (configuration not stated), -8.43%.
In the case of `Cc1noc([C@H]2C[C@H]3CN(C(=O)Cc4ccsc4)CC[C@H]3O2)n1`, the cytotoxicity at 70.5 h is -9.17%.
The same measure for `CCOCC1CN(C(=O)Cc2ccccn2)Cc2cn(C)nc21` (configuration not stated): -10.7%.
The same measure for `O=C(c1cnccn1)N1C[C@@H]2CN(Cc3cccnc3)CCO[C@@H]2C1`: 18.1%; for `Cn1cccc1C(=O)N1CCc2onc(Cn3cccn3)c2C1`: -5.3%.
The same measure for `c1cnc(N2CCOCC3(CCCN(c4nncs4)C3)C2)cn1` (configuration not stated): -3.82%; for `Cc1ccc(-n2cc(CN3CCOCC3)c(-c3cccc(C)c3)n2)cc1`: -2.44%.
As for `O=C(N[C@@H]1C[C@H]2CC[C@@H]1C2)C1(Oc2ccc(Cl)cc2)CCNCC1`, the cytotoxicity at 70.5 h was -2.25%.
The same measure for `CC(=O)NCc1nc(CCOc2ccc(Cl)cc2)no1`: -4.84%.
As for `COCC(O)CNC(=O)c1coc(COc2cccc(F)c2)n1` (configuration not stated), the cytotoxicity at 70.5 h was -4.43%.
For `CCCc1nnc(NCCn2nc(C)c(Cl)c2C)o1`, the cytotoxicity at 70.5 h is -7.4%.
With `Cc1cccnc1CN1CCN(C(=O)[C@@]23CNC[C@@H]2CN(C)C3)CC1`, the cytotoxicity at 70.5 h is -8.36%.
As for `CN1CCC(N(C)CCC(=O)N2CCC(CCc3ccccc3)CC2)C1` (configuration not stated), the cytotoxicity at 70.5 h worked out at 26.3%.
The same measure for `NC(=O)[C@@H]1CCCN1C(=O)c1cn(C/C=C/c2ccccc2)nn1`: -14%; for `O=c1[nH]c(COc2ccc(Cl)cc2)nc2c1CCNC2`: 16.3%; for `CC[C@H]1CN(C(=O)c2ccc(-n3cnnc3)nc2)CC[C@@]1(C)O`: 36%.
The same measure for `CCCOc1ccc2ccccc2c1CN1CC[C@@]2(O)CCNC[C@H]2C1`: -4.34%; for `COc1ccc(C(C(=O)O)N2CCC(O)(c3cccnc3)CC2)cc1F` (configuration not stated): 6.42%.
The same measure for `COCCNC(=O)CCC1CCN(Cc2cccc(SC)c2)CC1`: 5.26%.
As to `CN(Cc1nccs1)c1nccc(N2CCN[C@H]3CS(=O)(=O)C[C@H]32)n1`, the cytotoxicity at 70.5 h was found to be 2.95%.
With `COc1ccccc1CNC(=O)CN(C)C(C)c1nccs1` (configuration not stated), the cytotoxicity at 70.5 h is -1.57%.
The same measure for `CCC[C@@H]1CN(Cc2nnc(-c3cccnc3)o2)C[C@H]1NC(C)=O`: -7.21%; for `COCCc1ncc(-c2c(C#N)c(N)nc3c2CCc2[nH]ccc2-3)cn1`: -3.18%; for `Cc1nc(O)cc(C2CCN(C(=O)CN(C)c3ccccc3)CC2)n1`: -3.24%.
`Cc1ccc(SCCN(C)C(=O)c2cn([C@H]3CC[C@@H](N)CC3)nn2)cc1`: the cytotoxicity at 70.5 h worked out at 16.5%.
In the case of `CN(C)S(=O)(=O)N1CC[C@]2(O)CCN(c3nc4ccccc4s3)C[C@@H]2C1` it was 3.99%; in that of `Cc1nc(N2CCC3(CCCN(C(C)C)C3=O)C2)c2sccc2n1` (configuration not stated), -13.4%.
In the case of `CCc1ccc(CN2CCN(c3ccc(Cl)nn3)CC2)nc1` it was -4.56%.
In the case of `Cc1ccc(F)cc1S(=O)(=O)N1C[C@@H](C)[C@@](C)(O)C1` it was 14.7%; in that of `COc1cccc(S(=O)(=O)N2CCCCC2CCN2CCCC2=O)c1` (configuration not stated), -7.04%.
On to `Cc1cc(NCc2nnc3n2CCCCC3)n2nc(C)c(C)c2n1`, for which the cytotoxicity at 70.5 h is -5.75%.
Take `Cc1cnc(C)c(N2CCCC(CO)(Cc3cccc(Cl)c3)C2)n1` (configuration not stated): the cytotoxicity at 70.5 h is 21.2%.
The same measure for `CCCN1CCc2[nH]cnc2C12CCN(C(=O)Cn1ccnc1C)CC2`: -6.5%; for `COc1ccc(CN2C[C@@H](CN(C)CCO)[C@@H](CO)C2)cc1Cl`: -7.1%.
In the case of `COCCN(C)CCN1CC2(CCN(C3CCOC3)CC2)OC1=O` (configuration not stated) it was -0.423%; in that of `CC(=O)N1CCc2[nH]cnc2C12CCN(C(=O)Cc1ccccn1)CC2`, -14.9%; in that of `O=C(O)C1CC2(CCN(c3nccc4ccccc34)CC2)CN1` (configuration not stated), 9.49%.
The same measure for `CCC(CO)N(Cc1cccnc1)C(=O)c1ccoc1C` (configuration not stated): 0.679%; for `COCCCN1CCCC(c2nccn2CC2CCC2)C1` (configuration not stated): -15%; for `c1ccc(-c2cc(CN3C[C@@H]4CC[C@H](C3)N(CC3CC3)C4)on2)cc1`: -6.85%.
On to `CCCn1c(C)c(CC(=O)N(C)CC(=O)OC)c2c1CC(C)(C)CC2=O`, for which the cytotoxicity at 70.5 h was -3.68%.
In the case of `CC(C)=CCN1CCN(Cc2cccc(C)n2)CC1CCO` (configuration not stated) it was 6.26%.
In the case of `CCc1[nH]c2ccc(CNc3cncc(C(=O)N(C)C)n3)cc2c1C` it was -0.482%; in that of `CSc1ccc(CN(C(=O)c2cc[nH]n2)C2CC2)cc1`, -7.21%.
The same measure for `CCn1cc(CN2CCCC2c2nc(-c3ccccc3)no2)cc1C#N` (configuration not stated): 2.37%; for `COCCN1C(=O)[C@H]2CC[C@@H]1CN(S(=O)(=O)c1cccc(Cl)c1)C2`: 17.8%.
Turning to `N[C@H]1c2ccccc2C[C@@H]1NC(=O)C1CCN(Cc2ccco2)CC1`, the cytotoxicity at 70.5 h is -11.4%.
With `O=C(C1NCCc2[nH]cnc21)N1CCC2(C=Cc3ccccc32)CC1` (configuration not stated), the cytotoxicity at 70.5 h was -7.07%.
In the case of `c1cncc(-c2noc(CNc3ncnc4c3CCNCC4)n2)c1` it was -5.95%; in that of `Cc1ccc(C(=O)NCC2CCN(Cc3ccccc3C#N)C2)cn1` (configuration not stated), -5.59%; in that of `CCc1ccc(CN2CCN(Cc3ncc[nH]3)[C@H]3CS(=O)(=O)C[C@H]32)nc1`, -6.57%.
The same measure for `c1ccc(-c2cnn3cc(CN4CCC5(CCO5)CC4)cnc23)cc1`: 1.13%.
For the compound `Cc1nc[nH]c1CN1CCCN(c2nc3ccccc3s2)CC1`, the cytotoxicity at 70.5 h is -2.7%.
In the case of `Cc1ccc(C)c2c(O)cc(CN3CCC(=O)NCC3C)nc12` (configuration not stated) it was -8.42%; in that of `CCc1cc(N2CCC(n3cc(C(=O)NC4CC4)nn3)CC2)ncn1`, 12.5%; in that of `CCC(c1nc(C(C)C)nn1-c1ccccn1)n1cccn1` (configuration not stated), 17.2%.
In the case of `Cc1nn(C)c(C)c1CN(C)C(=O)C1COc2ccccc2C1` (configuration not stated), the cytotoxicity at 70.5 h was -3.84%.
On to `NC(=O)c1ccnc(N2CCCC(CO)(Cc3ccc(F)cc3)C2)c1` (configuration not stated), for which the cytotoxicity at 70.5 h is -6.25%.
In the case of `CC(=O)Nc1ccc(-c2ccccc2NC(=O)CN)cc1` it was 28.6%; in that of `N#Cc1cccc(NC2CC(=O)N(CCCc3ccccc3)C2)n1` (configuration not stated), -19.4%.
The same measure for `CC1=CC[C@@H]2CN(C(=O)c3ccc(-c4nnn(C)n4)cc3)C[C@@H]2C1`: 6%; for `CC(C)c1ccccc1NC(=O)N1C[C@@H]2CC[C@H](C1)N(C)C2=O`: 27.2%; for `Cc1nc[nH]c1C(=O)N1CCC2(CN(C)C(=O)O2)C1` (configuration not stated): -7.68%.
In the case of `O=c1n(CC2CC2)nc(C2CCNCC2)n1Cc1ccccc1` it was 9.69%.
For `Cc1oncc1C(=O)N1CCC(O)(CN2CCOCC2)C(C)(C)C1` (configuration not stated), the cytotoxicity at 70.5 h is -2.15%.
In the case of `CC(=O)N[C@@H]1CN(C(=O)c2cc(C)oc2C)C[C@H]1c1ccc(C)o1` it was 23.3%; in that of `c1csc(CN2CCc3nnc(COc4cncnc4)n3CC2)c1`, -6.3%.
The same measure for `N#Cc1cccc(N2CC3(CCN(C(=O)c4ccncc4)C3)CC2=O)c1` (configuration not stated): -5.96%; for `CCOCC1CC2(CCN(C(=O)c3ccc4ccccc4n3)CC2)CO1` (configuration not stated): -13.3%.
In the case of `O=C(c1ccccn1)N1CCC2(CC1)COC(COCC1CC1)C2` (configuration not stated) it was -8.98%.
For `CC(C)CCN1C[C@H]2C[C@H](C(=O)NCc3ccccc3)[C@@H](C1)O2`, the cytotoxicity at 70.5 h came out at 5.49%.
The same measure for `CN(C)CCO[C@H]1CN(C(=O)c2cccs2)[C@@H]2COC[C@H]12`: 20.9%; for `Cn1cccc1C(=O)N1CCC2(CC1)COC(COc1ccccn1)C2` (configuration not stated): -6.63%; for `C1CN(CC2CC2)C(COCC2CC2)c2nnn(CC3CC3)c21` (configuration not stated): -12.9%.
As to `Cn1cc(CN2CCCC23CCN(C(=O)c2ccsc2)CC3)cn1`, the cytotoxicity at 70.5 h was -5.87%.
With `Cn1cc(CN2CCCC23CCN(C(=O)c2ccccc2)CC3)cn1`, the cytotoxicity at 70.5 h was -11.9%.
In the case of `Cn1nnc2c1C(COCC1CC1)CN(Cc1ccoc1)C2` (configuration not stated) it was -9.19%; in that of `Cc1nc(CN2CCO[C@@H]3CN(Cc4cccs4)C[C@@H]3C2)cs1`, -4.54%.
In the case of `c1csc(CN2CCOCC3(CCN(C4CCOCC4)C3)C2)c1` (configuration not stated) it was -16.8%; in that of `O=C(O)c1c(-c2cccnc2)ncc2c1CCN(Cc1ccccn1)C2`, -8.57%.

The values are drawn from ChEMBL document CHEMBL3507680, “University of Dundee, Gates Library screen for HepG2 cell viability”.
